These results are taken from patent publication US20230090708A1, “METHODS AND COMPOSITIONS FOR THE TREATMENT OF HEMANGIOMA” (MASSEY VENTURES LIMITED, priority 2020, published 2023).

One series has as its system IH. The following applies: oral; 30 patients with IH; cited from earlier work.
Series [1] relates to proliferating IH. The following applies: topical 1% ointments; cited from earlier work.
Series [2] relates to proliferating IH. The following applies: cited from earlier work.
Series [3] has as its system proliferating hemangioma cells. Kind of series: Experiment 7: different ACEi and beta blockers on one primary cell line, MTT. Type of series: cell-based, human. The following applies: for Results Summary: 72 hours, one cell line; for inhibition at 1 µM / inhibition at 10 µM: Homo sapiens, 72 h, read-out: Inhibition vs. Cells + Adjuvant at 72 Hours. Here is the method:
(§1) An in vitro cell culture model of infantile hemangioma was developed to assess the impact of renin-angiotensin system inhibitors on cellular proliferation. A primary cell line of proliferating infantile hemangioma cells, including haemangioma stem cells, was derived from a tissue biopsy obtained from patients during the proliferating phase of the disease. The primary cell lines are cultured in 25 cm^2 flasks using standard culture media and conditions. The cultured cells are used to seed 96-well plates with a seed cell concentration of 2500 or 5000 cells per well, with additional culture media (200 μL). All studies are performed in triplicate.
The plates are incubated overnight to allow cell adherence to the wells. The wells are photographed to confirm cell adherence and confluency. The appropriate drug(s) to be examined are subsequently added to the wells. […] The media is aspirated from each well and stored frozen for possible future analyses. Media is added to the wells and an MTT determination is undertaken according to standard protocols.
(§2) From the triplicate incubations of each drug concentration at each time, as well as for all controls, the mean±standard deviation is calculated. The net survival (optical density value) is calculated by subtracting the appropriate blank mean value from each cell culture. From the MTT data, the percentage of survival of cells in the presence of each concentration of drug after each time of culturing is determined.
Briefly, cells were seeded in 96-well plates at concentrations of 2500 cells/well in triplicate for each drug and drug combination. […] All plates were performed in triplicate. Beta blockers used in the study were (±)-propranolol, R-propranolol, S-propranolol, timolol, and betaxalol.

Series [4] deals with proliferating infantile haemangioma cells. Kind of series: Example 2: single 100 μM dose on primary haemangioma cell line, MTT. Type of series: cell-based, human. The following applies: for inhibitory effect on haemangioma cell proliferation: 24, 48, 72 hours. The protocol:
(§3) An in vitro cell culture model of infantile hemangioma was developed to assess the impact of renin-angiotensin system inhibitors on cellular proliferation. A primary cell line of proliferating infantile hemangioma cells, including haemangioma stem cells, was derived from a tissue biopsy obtained from patients during the proliferating phase of the disease. The primary cell lines are cultured in 25 cm^2 flasks using standard culture media and conditions. The cultured cells are used to seed 96-well plates with a seed cell concentration of 2500 or 5000 cells per well, with additional culture media (200 μL). All studies are performed in triplicate. The plates are incubated overnight to allow cell adherence to the wells. The wells are photographed to confirm cell adherence and confluency. The appropriate drug(s) to be examined are subsequently added to the wells. After 24 hours, one set of plates (experimental and blank) is stopped. The media is aspirated from each well and stored frozen for possible future analyses. Media is added to the wells and an MTT determination is undertaken according to standard protocols. This is repeated at 48 and 72 hours. From the triplicate incubations of each drug concentration at each time, as well as for all controls, the mean±standard deviation is calculated. The net survival (optical density value) is calculated by subtracting the appropriate blank mean value from each cell culture. From the MTT data, the percentage of survival of cells in the presence of each concentration of drug after each time of culturing is determined. […] This model recapitulates the process of locally administering the drug directly to the hemangioma microenvironment, which is representative of diffusing the drug through skin to reach the target cells.

The test system of series [5] is proliferating infantile hemangioma cells derived from multiple patients (n=5). As to the kind of experiment: Example 4: single agents and combinations on five patient-derived cell lines, MTT. Type of series: cell-based, human. The following applies: for Individual Responders at 72 Hours with ≥30% Inhibition vs. Cells + Adjuvant: responders/cell lines; for Results Summary: 72 hours, n=5 cell lines; for Estimated Optimal Dosage Range in vitro / inhibition of all five patient-derived haemangioma cell lines: single agent. The protocol:
as §3, with “The experimental protocol was performed as per Example 1. Briefly, cells were seeded in 96-well plates at a concentration” for “This model recapitulates the process”, “2500 cells/well in triplicate for each” for “locally administering the”, “and drug combination. Drug(s) were added” for “directly”, “each well 24 hours after seeding and re-dosed every 24 hours. Cell viability was assessed by MTT assay after 24, 48, and 72 hours. All plates were performed in triplicate. Drugs were assessed alone and in combination as described in Table 3.” for “the hemangioma microenvironment, which is representative of diffusing the drug through skin to reach the target cells.”

For series [6] the following is noted: cited from earlier work.
In series [7] the test system is proliferating hemangioma cell lines (n=9). Kind of series: Example 6: single agents and combinations on nine primary cell lines, MTT, CompuSyn combination index. Type of series: cell-based, human. The following applies: 1 to 10 μM; 72 hours; n=9. Here is the method: as §1
The plates are incubated overnight to allow cell adherence to the wells. The wells are photographed to confirm cell adherence and confluency. The appropriate drug(s) to be examined are subsequently added to the wells. After 24 hours, one set of plates (experimental and blank) is stopped. The media is aspirated from each well and stored frozen for possible future analyses. Media is added to the wells and an MTT determination is undertaken according to standard protocols. This is repeated at 48 and 72 hours.
as §2
A study was undertaken using combinations of ACE inhibitors, beta blockers and angiotensin II type 2 receptor blockers to inhibit proliferating hemangioma cells. […] Patient histories pertaining to each cell line is described in Table 5.
The experimental protocol was performed as per Example 1. Briefly, cells were seeded in 96-well plates at concentrations of 2500 cells/well in triplicate for each drug and drug combination. Drug(s) were added to each well 24 hours after seeding and re-dosed every 24 hours. Cell viability was assessed by MTT assay after 24, 48, and 72 hours. All plates were performed in triplicate. Drugs were assessed alone and in combination, as described in Table 6. Propranolol was used as a model beta blocker, cilazapril as a model ACE inhibitor, and SMM02 (L-159686) as a model AT2Ri. Synergy was measured using the CompuSyn open-source software protocol for quantifying synergism and antagonism that uses the median-effect equation and mass-action laws to generate a combination index (www.compusyn.com). Synergism, additive effects and antagonism are defined as a CI<1, CI=1, and CI>1, respectively.

For series [8] the following is noted: in words; cited from earlier work.
For series [9] the following is noted: cited from earlier work. This is another data set of the same source.
For series [10] the following is noted: cited from earlier work. This is another data set of the same source.
Another series addresses ACE (Homo sapiens, UniProt P12821). The following applies: enzyme source not given; cited from earlier work.
Series [11] deals with proliferating IH. The following applies: topical 0.5% solution or gel; cited from earlier work.

Structures are written as SMILES. In brackets after ≈: the same amount, converted by molar mass. Entries after “also recorded” stand apart in the source; their conditions may differ. Like-named read-outs stand apart in the source and are kept apart here.

As usually defined, the inhibition is the change of the read-out against control, counted positive when it falls. By pKa is commonly meant the pH at which an ionisable group is half protonated. The term Log P denotes the decadic logarithm of the partition coefficient of the neutral form, usually between octanol and water. A word on the log P: it is the decadic logarithm of the partition coefficient of the neutral form, usually between octanol and water. For orientation: Solubility means the dissolved amount per volume that the medium holds. Usually IC50 stands for the point on the concentration scale where inhibition reaches its midpoint.

ACE, sequence (P12821 30-1306, species assumed): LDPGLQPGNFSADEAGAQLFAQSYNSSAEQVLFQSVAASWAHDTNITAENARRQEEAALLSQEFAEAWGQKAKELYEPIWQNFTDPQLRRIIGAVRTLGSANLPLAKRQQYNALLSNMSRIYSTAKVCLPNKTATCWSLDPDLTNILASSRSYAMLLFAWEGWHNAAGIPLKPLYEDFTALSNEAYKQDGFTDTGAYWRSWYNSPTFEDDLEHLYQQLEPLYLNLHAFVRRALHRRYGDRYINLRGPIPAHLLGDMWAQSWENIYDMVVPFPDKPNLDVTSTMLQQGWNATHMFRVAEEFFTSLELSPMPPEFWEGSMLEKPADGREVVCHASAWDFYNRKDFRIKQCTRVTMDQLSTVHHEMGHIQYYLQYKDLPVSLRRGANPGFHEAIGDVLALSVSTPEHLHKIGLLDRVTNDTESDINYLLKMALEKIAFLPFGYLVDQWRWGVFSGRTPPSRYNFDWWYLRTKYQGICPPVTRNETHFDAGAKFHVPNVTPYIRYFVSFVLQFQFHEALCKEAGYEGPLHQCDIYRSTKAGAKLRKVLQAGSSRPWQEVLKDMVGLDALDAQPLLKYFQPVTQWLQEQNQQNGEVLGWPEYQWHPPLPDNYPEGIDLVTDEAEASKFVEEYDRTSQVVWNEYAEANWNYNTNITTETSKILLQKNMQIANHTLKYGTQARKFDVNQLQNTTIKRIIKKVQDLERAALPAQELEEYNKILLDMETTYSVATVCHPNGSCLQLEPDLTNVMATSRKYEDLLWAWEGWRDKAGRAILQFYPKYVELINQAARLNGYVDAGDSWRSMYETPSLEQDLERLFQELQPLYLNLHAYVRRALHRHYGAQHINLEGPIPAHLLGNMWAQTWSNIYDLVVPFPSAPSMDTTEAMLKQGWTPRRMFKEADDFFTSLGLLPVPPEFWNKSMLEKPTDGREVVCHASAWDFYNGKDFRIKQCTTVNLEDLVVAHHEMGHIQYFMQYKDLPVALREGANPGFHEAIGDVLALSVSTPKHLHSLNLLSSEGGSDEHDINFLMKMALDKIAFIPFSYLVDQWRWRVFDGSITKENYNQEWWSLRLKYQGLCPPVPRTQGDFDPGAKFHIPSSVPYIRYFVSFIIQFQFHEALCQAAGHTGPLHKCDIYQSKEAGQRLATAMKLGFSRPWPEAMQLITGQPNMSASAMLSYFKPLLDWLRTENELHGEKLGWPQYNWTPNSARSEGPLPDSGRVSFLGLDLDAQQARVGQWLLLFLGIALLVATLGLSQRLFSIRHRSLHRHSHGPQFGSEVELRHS

In the case of `CC(C)NCC(O)COc1cccc2ccccc12` (racemic) [(±) Propranolol, Propranolol], in the series on IH, the “clinical improvement versus captopril” value is “significantly better and faster”. Further, in the series on proliferating IH [1], the good response is listed as 57-59%, the “good to modest response rates” value was 75-90%, the modest response is listed as 26-33% and the no response is 10-15%. Moreover, the “patients treated showing an improvement” value in the series on proliferating IH [2] (oral low dose, within 5 weeks) was “approximately 88%”. Moreover, in the series with proliferating IH [2] (oral, overall), the patients successfully treated entry is “approximately 60%”. In [3], the “Results Summary” value was “Responder”, the inhibition at 1 µM is less than 0% and the inhibition at 10 µM was found to be 47.5%.

Regarding `CCOC(=O)[C@H](CCc1ccccc1)N[C@H]1CCCN2CCC[C@@H](C(=O)O)N2C1=O` [Cilazapril], in series [4], the “inhibitory effect on haemangioma cell proliferation” value is reported as “diminishes over time”. The “increase in the inhibition of haemangioma cell proliferation compared to timolol” value in series [4] (24 hours) was found to be 7 fold. In addition, the “Individual Responders at 72 Hours with ≥30% Inhibition vs. Cells + Adjuvant” value in [5] (1 μM) is given as 1 μM - 1/5. The “Individual Responders at 72 Hours with ≥30% Inhibition vs. Cells + Adjuvant” value in series [5] (10 μM) came to 10 μM - 4/5. Also, in [5], the “Results Summary” value is reported as “Responder”, the “Estimated Optimal Dosage Range in vitro” value was 1 to 10 µM and the “inhibition of all five patient-derived haemangioma cell lines” value was “significantly inhibited”. Moreover, the pKa in series [6] was 3.4. In addition, the pKa in series [6] (second value) is 6.5. In [7], the “dose-response across all cell lines” value is “typical dose-response”. Also, in [8], the “Half life: short or long acting” value was “Long acting”. For the same molecule, the “Log P” value in series [9] (Table 1) is on record as 0.8. In series [9], the log partition coefficient (log P) is 0.8. Besides, in [10], the Solubility was 5000 µg/mL (≈ 12 mM). In addition, in series [3] (1 μM and 10 μM), the “inhibition of proliferating hemangioma cells” value was “good and similar level of inhibition”. Also, in series [3], the “Results Summary” value is reported as “Responder”, the inhibition at 1 µM worked out at 4.35% and the inhibition at 10 µM is 60.5%. Also, on ACE, the 50% inhibitory concentration (IC50) was 4 nM.

For `CC(C)(C)NC[C@H](O)COc1nsnc1N1CCOCC1` [Timolol], the “inhibitory effect on haemangioma cell proliferation” value in [4] is recorded as “little effect; also recorded: consistent”. Further, the “Individual Responders at 72 Hours with ≥30% Inhibition vs. Cells + Adjuvant” value in series [5] (1 μM) is recorded as 1 μM - 0/5. Moreover, the “Individual Responders at 72 Hours with ≥30% Inhibition vs. Cells + Adjuvant” value in series [5] (10 μM) is given as 10 μM - 4/5. Further, in series [5], the “Results Summary” value is recorded as “Responder”, the “Estimated Optimal Dosage Range in vitro” value is 1 to 10 µM and the “inhibition of all five patient-derived haemangioma cell lines” value is given as “significantly inhibited”. The “clinical response” value in the series with proliferating IH [11] was “clinically beneficial response”. Also, in series [3], the “Results Summary” value is listed as “Responder”, the inhibition at 1 µM was 11.1% and the inhibition at 10 µM was determined as 57%.
